# Values quoted from earlier work as cited in patent US20060063794A1, “Method of attenuating graft rejection” (Fujisawa Pharmaceutical Co., Ltd., priority 2004, published 2006).
# Legend:
# rat cardiac allografts = conditions: rats, 20 mg/kg for ten days; cited from earlier work
# [1] = MMF 2 g/day in addition to Tacrolimus and corticosteroid; cited from earlier work
Compound,Prolongation of graft survival (rat cardiac allografts),AR rate [1]
"N#Cc1ccc(NC(=O)C(C#N)C(=O)C2CC2)cc1 (centres unmarked) [MNA 279, reference compound]",about two,–
COc1c(C)c2c(c(O)c1C/C=C(\C)CCC(=O)OCCN1CCOCC1)C(=O)OC2 [MMF],–,7.1%
